experiment: Final pH of treated solution; assay type: physicochemical; settings: 0.2 grams of reagent; water 4.36
Excerpt: The basicity of certain reagents was examined in terms of the reagents' relative ability to recover iodine. […] The amount of each reagent was 0.2 grams.

Row | SMILES | Final pH of Treated Solution
1 | O=C(O)O [CaCO3, Calcium carbonate] | 7.12
2 | [Ca+2].[OH-].[OH-] [Ca(OH)2, calcium hydroxide] | 12.23
3 | [Mg+2].[OH-].[OH-] [Mg(OH)2, magnesium hydroxide] | 8.86
4 | [O]=[Mg] [MgO, magnesium oxide] | 7.33
5 | [O]=[Ca] [CaO, calcium oxide] | 12.34
6 | O=C(O)O [MgCO3, magnesium carbonate] | 7.96

experiment: not given; settings: cited from earlier work

Row | SMILES | Water Solubility [g/100 cc]
7 | [O]=[Mg] [MgO, magnesium oxide] | 0.001
8 | [O]=[Ca] [CaO, calcium oxide] | 0.131
